PubChem BioAssay (NCI)
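Cells were grown in 96-well plates and exposed to each compound for 48 hours at five concentrations; endpoints were interpolated linearly between bracketing concentrations, or set to the highest concentration if not reached. GI50 is the concentration that inhibits growth by half. TGI marks complete inhibition of growth.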

Key:
Experiment in all cases: growth of human tumour cells (NCI), 48 h
DU-145 prostate = system: DU-145 prostate
TK-10 renal = system: TK-10 renal
HCT-15 colon = system: HCT-15 colon
COLO 205 colon = system: COLO 205 colon
HOP-62 NSCLC = system: HOP-62 NSCLC
MCF7 breast = system: MCF7 breast
HS 578T breast = system: HS 578T breast
HCT-116 colon = system: HCT-116 colon
OVCAR-4 ovarian = system: OVCAR-4 ovarian
SN12C renal = system: SN12C renal

For Cn1c(COC(=O)NCCc2ccccn2)nc2c(N3CCOCC3)nc(Cl)nc21, which GI50 (DU-145 prostate) is on record?
Its GI50 is 1.59 µM.

And the TGI (DU-145 prostate)?
Its TGI is 3.11 µM.

What about the GI50 (TK-10 renal) of the same compound?
The GI50 was 1.72 µM.

And the TGI (TK-10 renal)?
The TGI was 3.34 µM.

What about the GI50 (HCT-15 colon) of the same compound?
Its GI50 is 1.14 µM.

And the TGI (HCT-15 colon)?
The TGI was 3.2 µM.

And the GI50 (COLO 205 colon)?
Its GI50 is 1.72 µM.

And the TGI (COLO 205 colon)?
Its TGI is 3.61 µM.

And the GI50 (HOP-62 NSCLC)?
The GI50 was 1.65 µM.

And the TGI (HOP-62 NSCLC)?
Its TGI is 4.88 µM.

What about the GI50 (MCF7 breast) of the same compound?
Its GI50 is 0.946 µM.

And the TGI (MCF7 breast)?
The TGI was 2.95 µM.

And the GI50 (HS 578T breast)?
The GI50 was 2 µM.

What about the TGI (HS 578T breast) of the same compound?
Its TGI is 6.22 µM.

What about the GI50 (HCT-116 colon) of the same compound?
The GI50 was 0.847 µM.

What about the TGI (HCT-116 colon) of the same compound?
Its TGI is 2.25 µM.

And the GI50 (OVCAR-4 ovarian)?
Its GI50 is 1.62 µM.

And the TGI (OVCAR-4 ovarian)?
The TGI was 3.63 µM.

And the GI50 (SN12C renal)?
The GI50 was 1.37 µM.

And the TGI (SN12C renal)?
Its TGI is 3.48 µM.

COc1ccc(-n2cc(-c3ccc(OC)c(OC)c3)[nH]c2=O)cc1 was tested. Which GI50 (DU-145 prostate) did it give?
Its GI50 is greater than 100 µM.

What about the TGI (DU-145 prostate) of the same compound?
The TGI was greater than 100 µM.

What about the GI50 (TK-10 renal) of the same compound?
Its GI50 is greater than 100 µM.

And the TGI (TK-10 renal)?
The TGI was greater than 100 µM.

And the GI50 (HCT-15 colon)?
Its GI50 is greater than 100 µM.

What about the TGI (HCT-15 colon) of the same compound?
The TGI was greater than 100 µM.

What about the GI50 (COLO 205 colon) of the same compound?
The GI50 was greater than 100 µM.

And the TGI (COLO 205 colon)?
The TGI was greater than 100 µM.

And the GI50 (HOP-62 NSCLC)?
The GI50 was greater than 100 µM.

And the TGI (HOP-62 NSCLC)?
The TGI was greater than 100 µM.

And the GI50 (MCF7 breast)?
The GI50 was greater than 100 µM.

What about the TGI (MCF7 breast) of the same compound?
Its TGI is greater than 100 µM.

What about the GI50 (HS 578T breast) of the same compound?
Its GI50 is greater than 100 µM.

What about the TGI (HS 578T breast) of the same compound?
Its TGI is greater than 100 µM.

And the GI50 (HCT-116 colon)?
The GI50 was greater than 100 µM.

And the TGI (HCT-116 colon)?
The TGI was greater than 100 µM.

What about the GI50 (OVCAR-4 ovarian) of the same compound?
Its GI50 is greater than 100 µM.

What about the TGI (OVCAR-4 ovarian) of the same compound?
Its TGI is greater than 100 µM.

And the GI50 (SN12C renal)?
Its GI50 is greater than 100 µM.

What about the TGI (SN12C renal) of the same compound?
Its TGI is greater than 100 µM.

What does the source list for COc1ccc(-c2ccc(C3CC(c4ccccc4)=NN3)o2)c([N+](=O)[O-])c1 (stereo not given)?
GI50 (DU-145 prostate): 82.6 µM; TGI (DU-145 prostate): > 100 µM; GI50 (TK-10 renal): 22.1 µM; TGI (TK-10 renal): 63.8 µM; GI50 (HCT-15 colon): 37.4 µM; TGI (HCT-15 colon): > 100 µM; GI50 (COLO 205 colon): 52.9 µM; TGI (COLO 205 colon): > 100 µM; GI50 (HOP-62 NSCLC): 52.7 µM; TGI (HOP-62 NSCLC): > 100 µM; GI50 (MCF7 breast): 31.8 µM; TGI (MCF7 breast): > 100 µM; GI50 (HS 578T breast): 43 µM; TGI (HS 578T breast): > 100 µM; GI50 (HCT-116 colon): 33.5 µM; TGI (HCT-116 colon): > 100 µM; GI50 (OVCAR-4 ovarian): 43.5 µM; TGI (OVCAR-4 ovarian): > 100 µM; GI50 (SN12C renal): 56.4 µM; TGI (SN12C renal): > 100 µM

Which results are given for Cc1n[nH]c2ccccc2c1=O?
TGI (DU-145 prostate): > 100 µM; TGI (TK-10 renal): > 100 µM; TGI (HCT-15 colon): > 100 µM; TGI (COLO 205 colon): > 100 µM; TGI (HOP-62 NSCLC): > 100 µM; TGI (MCF7 breast): > 100 µM; TGI (HS 578T breast): > 100 µM; TGI (HCT-116 colon): > 100 µM; TGI (OVCAR-4 ovarian): > 100 µM; TGI (SN12C renal): > 100 µM
